Measured values published in US20240124469A1, “PIM KINASE INHIBITOR” (Hangzhou Biosun Pharmaceutical Co., Ltd., priority 2021, published 2024).

Tests used:
PIM1 = PIM1 (Homo sapiens (Human), UniProt P11309); test: PIM1 kinase activity test (Mobility shift assay); assay type: biochemical
Experimental: (§1) The efficacy of the compounds on the activity of PIM1/2/3 was tested by utilizing the Mobility shift assay method, with the specific procedures shown as follows: the test compounds were each dissolved in DMSO to be prepared into a 10 mM stock solution; for each of the test compounds, the stock solution was subjected to a 3-fold dilution from an initial concentration of 10 μM to obtain 10 concentrations.
(§2) PIM1, PIM2, and PIM3 (all three kinases are from Carna) were each prepared with 1× Kinase buffer into a kinase solution at a concentration that was 2.5 times the final concentration. 10 μL of kinase solution at a concentration that was 2.5 times the final concentration was added to each of the compound wells and the positive control well, and 10 μL of 1× Kinase buffer was added to the negative control well. The plate was centrifuged at 1000 rpm for 30 s, mixed well by shaking, and then incubated at room temperature for 10 min. A mixed solution of ATP and Kinase substrate 20 (from GL) at a concentration that was 25/15 times the final concentration was prepared with 1× Kinase buffer. The reaction was started by adding 15 μL of the mixed solution of ATP and Kinase substrate 20 at a concentration that was 25/15 times the final concentration. The 384-well plate was centrifuged at 1000 rpm for 30 s, mixed well by shaking, and then incubated at room temperature for 60 min. 30 μL of stop assay buffer was added to stop the kinase reaction. The plate was centrifuged at 1000 rpm for 30 s and mixed well by shaking. The conversion rates were read using Caliper EZ Reader.
(§3) The IC50 values of the test compounds for kinase activity were obtained by adopting a fitted dose-response curve of analytic software GraphPad Prism 5.

PIM2 = PIM2 (Homo sapiens (Human), UniProt Q9P1W9); test: PIM2 kinase activity test (Mobility shift assay); assay type: biochemical
Sequence of PIM2 (Q9P1W9 whole entry): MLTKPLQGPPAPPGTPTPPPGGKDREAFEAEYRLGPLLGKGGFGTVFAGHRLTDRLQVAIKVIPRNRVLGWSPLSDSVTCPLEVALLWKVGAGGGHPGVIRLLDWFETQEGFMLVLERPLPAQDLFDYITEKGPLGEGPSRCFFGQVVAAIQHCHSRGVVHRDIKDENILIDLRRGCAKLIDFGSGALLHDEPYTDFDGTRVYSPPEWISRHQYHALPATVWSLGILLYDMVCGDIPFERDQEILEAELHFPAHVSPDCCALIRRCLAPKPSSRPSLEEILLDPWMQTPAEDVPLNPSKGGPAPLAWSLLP
Experimental: as §1, §2, §3

PIM3 = PIM3 (Homo sapiens (Human), UniProt Q86V86); test: PIM3 kinase activity test (Mobility shift assay); assay type: biochemical
Experimental: as §1, §2, §3

Ba/F3-EPOR-JAK2-V617F = test: Cell inhibitory activity test (72 h CTG); assay type: cell-based
Experimental: The EPOR-JAK2-V617F gene was transferred into Ba/F3 wild-type cells by a retrovirus packaging system to obtain a stably transfected cell line Ba/F3-EPOR-JAK2-V617F, which was used for the cell inhibitory activity ICso test of the compounds (reference: Blood. 2010; 115(15): 3109-3117). The specific procedures were as follows: • Cells were seeded in a 96-well plate, treated with the test compounds from DMSO stock solutions (final concentration of DMSO is 0.2%), and cultured at 37° C. with 5% CO2 for 72 h. Then, the cell proliferation inhibitory activity was assayed by the CTG (Cell-Titer Glo) method. For each of the test compounds, the stock solution was subjected to a 3-fold dilution from an initial concentration of 10 μM to obtain 9 concentrations. The dose-response relationship curve was fitted by using Graphpad 7.0 analysis software, and IC50 values were obtained.

Sequence of PIM1 (P11309 whole entry): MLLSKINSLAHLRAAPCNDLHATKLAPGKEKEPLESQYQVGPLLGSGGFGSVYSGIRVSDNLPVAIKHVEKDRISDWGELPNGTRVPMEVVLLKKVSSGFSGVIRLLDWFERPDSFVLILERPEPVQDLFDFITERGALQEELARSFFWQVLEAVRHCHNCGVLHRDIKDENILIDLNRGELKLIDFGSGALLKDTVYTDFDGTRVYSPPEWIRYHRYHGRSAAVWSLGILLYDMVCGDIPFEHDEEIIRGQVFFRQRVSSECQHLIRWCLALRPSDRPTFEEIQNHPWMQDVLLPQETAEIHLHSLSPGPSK

SMILES | IC50 (PIM1) [nM] | IC50 (PIM2) [nM] | IC50 (PIM3) [nM] | IC50 (Ba/F3-EPOR-JAK2-V617F) [nM]
OC[C@H]1CC[C@H](Nc2ccc3ncc(-c4cccc(C(F)(F)F)c4)n3n2)CO1 [Compound 25, [(2R,5S)-5-[[3-[3-(trifluoromethyl)phenyl]imidazo[1,2-b]pyridazin-6-yl]amino]tetrahydropyran-2-yl]methanol] | 100 to 1000 | > 10000 | 1000 to 10000 | –
CN1CCC(CNc2ccc3ncc(-c4cccc(N(C)C)c4)n3n2)CC1 [Compound 50, 3-(3-(dimethylamino)phenyl)-N-((1-methylpiperidin-4-yl)methyl)imidazo[1,2-b]pyridazin-6-amine] | 100 to 1000 | > 10000 | 1000 to 10000 | –
O[C@H]1CCCC[C@@H](Nc2ccc3ncc(-c4cccc(C(F)(F)F)c4)n3n2)C1 [Compound 21, (1S,3R)-3-[[3-[3-(trifluoromethyl)phenyl]imidazo[1,2-b]pyridazin-6-yl]amino]cycloheptanol] | 100 to 1000 | 1000 to 10000 | 1000 to 10000 | –
O[C@H]1CCC[C@@H](Nc2ccc3ncc(-c4cccc(C(F)(F)F)c4)n3n2)CC1 (relative stereo) [Compound 23, cis-4-[[3-[3-(trifluoromethyl)phenyl]imidazo[1,2-b]pyridazin-6-yl]amino]cycloheptanol] | 100 to 1000 | > 10000 | 1000 to 10000 | –
O[C@@H]1CCC[C@@H](Nc2ccc3ncc(-c4cccc(C(F)(F)F)c4)n3n2)CC1 [Compound 45, (1R,4R)-4-((3-(3-(trifluoromethyl)phenyl)imidazo[1,2-b]pyridazin-6-yl)amino)cycloheptanol] | 10 to 100 | 1000 to 10000 | 1000 to 10000 | –
CC(C)(O)[C@H]1CC[C@H](Nc2ccc3ncc(-c4cccs4)n3n2)CC1 [Compound 14, 2-[(1r,4r)-4-[[3-(2-thienyl)imidazo[1,2-b]pyridazin-6-yl]amino]cyclohexyl]propan-2-ol] | 10 to 100 | 100 to 1000 | 100 to 1000 | –
CC(C)(O)[C@H]1CC[C@H](Nc2ccc3nc(C(=O)O)c(-c4cccc(C(F)(F)F)c4)n3n2)CC1 [Compound 42, 6-(((1r,4r)-4-(2-hydroxypropan-2-yl)cyclohexyl)amino)-3-(3-(trifluoromethyl)phenyl)imidazo[1,2-b]pyridazine-2-carboxylic acid] | 100 to 1000 | > 10000 | 1000 to 10000 | –

Now from value to molecule:

IC50 (PIM1) [nM] | IC50 (PIM2) [nM] | IC50 (PIM3) [nM] | IC50 (Ba/F3-EPOR-JAK2-V617F) [nM] | SMILES
2 to 10 | 100 to 1000 | 10 to 100 | > 150 | FC(F)(F)c1cccc(-c2cnc3ccc(NC4CC5(CCNCC5)C4)nn23)c1 [Compound 16, N-(7-azaspiro[3.5]nonan-2-yl)-3-[3-(trifluoromethyl)phenyl]imidazo[1,2-b]pyridazin-6-amine]
< 2 | 100 to 1000 | 10 to 100 | 50 to 100 | FC(F)(F)c1ccc(-c2cnc3ccc(NC4CC5(CCNCC5)C4)nn23)s1 [Compound 31, N-(7-azaspiro[3.5]nonan-2-yl)-3-[5-(trifluoromethyl)-2-thienyl]imidazo[1,2-b]pyridazin-6-amine]
< 2 | 100 to 1000 | 10 to 100 | 50 to 100 | FC(F)(F)c1ccc(-c2cnc3ccc(NC4CCCNCC4)nn23)s1 (stereo not drawn) [Compound 28, N-(azepan-4-yl)-3-[5-(trifluoromethyl)-2-thienyl] imidazo[1,2-b] pyrid azin-6-amine]
10 to 100 | > 10000 | 100 to 1000 | – | CC(C)(O)[C@H]1CC[C@H](Nc2ccc3ncc(-c4cccc(-c5ccco5)c4)n3n2)CC1 [Compound 48, 2-((1r,4r)-4-((3-(3-(furan-2-yl)phenyl)imidazo[1,2-b]pyridazin-6-yl)amino)cyclohexyl)propan-2-ol]
2 to 10 | 100 to 1000 | 10 to 100 | – | FC(F)(F)c1cccc(-c2cnc3ccc(NC4CCCNCC4)nn23)c1 (stereo not drawn) [Compound 19, N-(azepan-4-yl)-3-[3-(trifluoromethyl)phenyl]imidazo[1,2-b]pyridazin-6-amine]
